Measurements reported in patent US6770597B2, “Benzohydrazide derivatives as herbicides and desiccant compositions containing them” (Ishihara Sangyo Kaisha, Ltd., priority 2002, dated 2004).

Columns and labels:
Assay type in all cases: in vivo
[1] = system: common ragweed (Ambrosia artemisiifolia L., AMBEL); assay: Greenhouse herbicide screen, pre-emerge application, phytotoxicity rating; conditions: PRE emergent, 14 days after application, rating scale 0-100
Text: (§1) A standard greenhouse herbicide activity screening system was used to evaluate the herbicidal efficacy and crop safety of these test compounds. Seven broadleaf weed species including redroot pigweed (Amaranthus retrofiexus, AMARE), velvetleaf (Abutilon theophrasti, ABUTH), sicklepod (Cassia obtusifolia, CASOB), ivyleaf morningglory (Ipomoea hederacea, IPOHE), lambsquarters (Chenopodium album, CHEAL), common ragweed (Ambrosia artemisiifolia L., AMBEL), and cocklebur (Xanthium strumarium, XANST) were used as test species. Four grass weed species including green foxtail (Setaria viridis, SETVI), barnyardgrass (Echinochloa crus-galli, ECHCG), johnsongrass (Sorghum halepense, SORHA), and large crabgrass (Digitaria sanguinalis, DIGSA) were also used. In addition, four crop species, field corn (Zea mays L., var. Dekalb 535, CORN), soybean (Glycine max L., var. Pella 86, SOY), upland rice (Oryza sp., var.Cocodrie, RICE) and wheat (Triticum aestivum L.) were included.
(§2) All plants were grown in 10 cm square plastic pots which were filled with a sandy loam soil mix. For pre-emerge tests, seeds were planted one day prior to application of the test compounds. For post-emerge tests, seeds were planted 8-21 days prior to the test to allow emergence and good foliage development prior to application of the test substances. At the time of the post-emerge application, plants of all species were usually at the 2-3 leaf stage of development.
(§3) All test compounds were dissolved in acetone and applied to the test units in a volume of 187 l/ha. Test materials were applied at rates ranging from 15 g ai/ha to 1000 g ai/ha using a track sprayer equipped with a TJ8001E even flow flat fan spray nozzle. Plants were arranged on a shelf so that the top of the canopy (post-emerge) or top of the soil surface (pre-emerge) was 40-45 cm below the nozzle. Pressurized air was used to force the test solution through the nozzle as it was mechanically advanced (via electrically driven chain drive) over the top of all test plants/pots. This application simulates a typical commercial field herbicide application.
(§4) Pre-emergence tests were top watered immediately after treatment to incorporate the test materials, then routinely top-watered for normal growth. Post-emerge test units were always bottom-watered.
(§5) At 14 days after application of the test materials, phytotoxicity ratings were recorded. A rating scale of 0-100 was used as previously described in Research Methods in Weed Science, 2nd edition, B. Truelove, Ed., Southern Weed Science Society, Auburn University, Auburn, Ala., 1977. Briefly, “0” corresponds to no damage and “100” corresponds to complete death of all plants in the test unit. This scale was used both to determine efficacy against weed species and damage to crop species. Herbicide activity data for various compounds of this invention, which are shown by compound No. in Tables 1-12, are shown in Tables 13 and 14.

[2] = system: green foxtail (Setaria viridis, SETVI); assay: as above; conditions: PRE emergent, 14 days after application, rating scale 0-100
Text: as §1, §2, §3, §4, §5

[3] = system: velvetleaf (Abutilon theophrasti, ABUTH); assay: as above; conditions: PRE emergent, 14 days after application, rating scale 0-100
Text: as §1, §2, §3, §4, §5

[4] = system: sicklepod (Cassia obtusifolia, CASOB); assay: as above; conditions: PRE emergent, 14 days after application, rating scale 0-100
Text: as §1, §2, §3, §4, §5

[5] = system: ivyleaf morningglory (Ipomoea hederacea, IPOHE); assay: as above; conditions: PRE emergent, 14 days after application, rating scale 0-100
Text: as §1, §2, §3, §4, §5

[6] = system: cocklebur (Xanthium strumarium, XANST); assay: as above; conditions: PRE emergent, 14 days after application, rating scale 0-100
Text: as §1, §2, §3, §4, §5

[7] = system: lambsquarters (Chenopodium album, CHEAL); assay: as above; conditions: PRE emergent, 14 days after application, rating scale 0-100
Text: as §1, §2, §3, §4, §5

[8] = system: barnyardgrass (Echinochloa crus-galli, ECHCG); assay: as above; conditions: PRE emergent, 14 days after application, rating scale 0-100
Text: as §1, §2, §3, §4, §5

[9] = system: redroot pigweed (Amaranthus retrofiexus, AMARE); assay: as above; conditions: PRE emergent, 14 days after application, rating scale 0-100
Text: as §1, §2, §3, §4, §5

[10] = system: johnsongrass (Sorghum halepense, SORHA); assay: as above; conditions: PRE emergent, 14 days after application, rating scale 0-100
Text: as §1, §2, §3, §4, §5

[11] = system: large crabgrass (Digitaria sanguinalis, DIGSA); assay: as above; conditions: PRE emergent, 14 days after application, rating scale 0-100
Text: as §1, §2, §3, §4, §5

[12] = system: common ragweed (Ambrosia artemisiifolia L., AMBEL); assay: Greenhouse herbicide screen, post-emerge application, phytotoxicity rating; conditions: POST emergent, 14 days after application, scale 0-100
Text: as §1, §2, §3, §4, §5

[13] = system: green foxtail (Setaria viridis, SETVI); assay: as above; conditions: POST emergent, 14 days after application, scale 0-100
Text: as §1, §2, §3, §4, §5

[14] = system: velvetleaf (Abutilon theophrasti, ABUTH); assay: as above; conditions: POST emergent, 14 days after application, scale 0-100
Text: as §1, §2, §3, §4, §5

[15] = system: sicklepod (Cassia obtusifolia, CASOB); assay: as above; conditions: POST emergent, 14 days after application, scale 0-100
Text: as §1, §2, §3, §4, §5

[16] = system: ivyleaf morningglory (Ipomoea hederacea, IPOHE); assay: as above; conditions: POST emergent, 14 days after application, scale 0-100
Text: as §1, §2, §3, §4, §5

[17] = system: cocklebur (Xanthium strumarium, XANST); assay: as above; conditions: POST emergent, 14 days after application, scale 0-100
Text: as §1, §2, §3, §4, §5

[18] = system: lambsquarters (Chenopodium album, CHEAL); assay: as above; conditions: POST emergent, 14 days after application, scale 0-100
Text: as §1, §2, §3, §4, §5

[19] = system: barnyardgrass (Echinochloa crus-galli, ECHCG); assay: as above; conditions: POST emergent, 14 days after application, scale 0-100
Text: as §1, §2, §3, §4, §5

[20] = system: redroot pigweed (Amaranthus retrofiexus, AMARE); assay: as above; conditions: POST emergent, 14 days after application
Text: as §1, §2, §3, §4, §5

[21] = system: johnsongrass (Sorghum halepense, SORHA); assay: as above; conditions: POST emergent, 14 days after application, scale 0-100
Text: as §1, §2, §3, §4, §5

[22] = system: large crabgrass (Digitaria sanguinalis, DIGSA); assay: as above; conditions: POST emergent, 14 days after application, scale 0-100
Text: as §1, §2, §3, §4, §5

[23] = 63 g ai/ha, scale 0-100 (0 no damage, 100 complete death)

COC(=NN=C(C(C)(C)C)C(C)(C)C)c1cc(-n2c(=O)cc(C(F)(F)F)n(C)c2=O)c(F)cc1Cl [Compound 5-6, 2-chloro-5-(3,6-dihydro-3-methyl-2,6-dioxo-4-(trifluoromethyl)-1(2H)-pyrimidinyl)-N-[1-(1,1-dimethylethyl)-2,2-dimethylpropylidene]-4-fluoro-benzenecarbohydrazonic Acid Methyl Ester]
70: phytotoxicity rating IPOHE ([5]; 250 g ai/ha) | phytotoxicity rating IPOHE ([16]; 250 g ai/ha)
100: phytotoxicity rating SETVI ([2]; 250 g ai/ha) | phytotoxicity rating CHEAL ([7]; 63 g ai/ha) | phytotoxicity rating CHEAL ([7]; 250 g ai/ha) | phytotoxicity rating AMARE ([9]; 63 g ai/ha) | phytotoxicity rating AMARE ([9]; 250 g ai/ha) | phytotoxicity rating SORHA ([10]; 250 g ai/ha) | phytotoxicity rating SETVI ([13]; 250 g ai/ha) | phytotoxicity rating CHEAL ([18]; 63 g ai/ha) | phytotoxicity rating CHEAL ([18]; 250 g ai/ha) | phytotoxicity rating AMARE [20, 23] | phytotoxicity rating AMARE ([20]; 250 g ai/ha, scale 0-100) | phytotoxicity rating SORHA ([21]; 250 g ai/ha)
25: phytotoxicity rating SORHA ([10]; 63 g ai/ha) | phytotoxicity rating SORHA ([21]; 63 g ai/ha)
99: phytotoxicity rating AMBEL ([1]; 250 g ai/ha) | phytotoxicity rating DIGSA ([11]; 250 g ai/ha) | phytotoxicity rating AMBEL ([12]; 250 g ai/ha) | phytotoxicity rating DIGSA ([22]; 250 g ai/ha)
75: phytotoxicity rating ABUTH ([3]; 63 g ai/ha) | phytotoxicity rating ABUTH ([14]; 63 g ai/ha)
10: phytotoxicity rating XANST ([6]; 250 g ai/ha) | phytotoxicity rating XANST ([17]; 250 g ai/ha)
95: phytotoxicity rating SETVI ([2]; 63 g ai/ha) | phytotoxicity rating ABUTH ([3]; 250 g ai/ha) | phytotoxicity rating SETVI ([13]; 63 g ai/ha) | phytotoxicity rating ABUTH ([14]; 250 g ai/ha)
20: phytotoxicity rating DIGSA ([11]; 63 g ai/ha) | phytotoxicity rating DIGSA ([22]; 63 g ai/ha)
40: phytotoxicity rating CASOB ([4]; 63 g ai/ha) | phytotoxicity rating ECHCG ([8]; 63 g ai/ha) | phytotoxicity rating CASOB ([15]; 63 g ai/ha) | phytotoxicity rating ECHCO ([19]; 63 g ai/ha)
90: phytotoxicity rating ECHCG ([8]; 250 g ai/ha) | phytotoxicity rating ECHCO ([19]; 250 g ai/ha)
98: phytotoxicity rating CASOB ([4]; 250 g ai/ha) | phytotoxicity rating CASOB ([15]; 250 g ai/ha)
35: phytotoxicity rating AMBEL ([1]; 63 g ai/ha) | phytotoxicity rating IPOHE ([5]; 63 g ai/ha) | phytotoxicity rating AMBEL ([12]; 63 g ai/ha) | phytotoxicity rating IPOHE ([16]; 63 g ai/ha)
0: phytotoxicity rating XANST ([6]; 63 g ai/ha) | phytotoxicity rating XANST ([17]; 63 g ai/ha)

Cn1c(C(F)(F)F)cc(=O)n(-c2cc(C(=O)NN=C(C(C)(C)C)C(C)(C)C)c(Cl)cc2F)c1=O [Compound 6-4, 2-chloro-5-(3,6-dihydro-3-methyl-2,6-dioxo-4-(trifluoromethyl)-1(2H)-pyrimidinyl)-4-fluoro-benzoic acid, 2-[1-(1,1-dimethylethyl)-2,2-dimethylpropylidene]hydrazide]
100: phytotoxicity rating AMBEL ([1]; 63 g ai/ha) | phytotoxicity rating AMBEL ([1]; 250 g ai/ha) | phytotoxicity rating SETVI ([2]; 63 g ai/ha) | phytotoxicity rating SETVI ([2]; 250 g ai/ha) | phytotoxicity rating ABUTH ([3]; 63 g ai/ha) | phytotoxicity rating ABUTH ([3]; 250 g ai/ha) | phytotoxicity rating CASOB ([4]; 250 g ai/ha) | phytotoxicity rating IPOHE ([5]; 63 g ai/ha) | phytotoxicity rating IPOHE ([5]; 250 g ai/ha) | phytotoxicity rating XANST ([6]; 250 g ai/ha) | phytotoxicity rating CHEAL ([7]; 63 g ai/ha) | phytotoxicity rating CHEAL ([7]; 250 g ai/ha) | phytotoxicity rating ECHCG ([8]; 250 g ai/ha) | phytotoxicity rating AMARE ([9]; 63 g ai/ha) | phytotoxicity rating AMARE ([9]; 250 g ai/ha) | phytotoxicity rating SORHA ([10]; 250 g ai/ha) | phytotoxicity rating DIGSA ([11]; 63 g ai/ha) | phytotoxicity rating DIGSA ([11]; 250 g ai/ha) | phytotoxicity rating AMBEL ([12]; 250 g ai/ha) | phytotoxicity rating SETVI ([13]; 250 g ai/ha) | phytotoxicity rating ABUTH ([14]; 63 g ai/ha) | phytotoxicity rating ABUTH ([14]; 250 g ai/ha) | phytotoxicity rating IPOHE ([16]; 63 g ai/ha) | phytotoxicity rating IPOHE ([16]; 250 g ai/ha) | phytotoxicity rating XANST ([17]; 63 g ai/ha) | phytotoxicity rating XANST ([17]; 250 g ai/ha) | phytotoxicity rating CHEAL ([18]; 63 g ai/ha) | phytotoxicity rating CHEAL ([18]; 250 g ai/ha) | phytotoxicity rating ECHCO ([19]; 250 g ai/ha) | phytotoxicity rating AMARE [20, 23] | phytotoxicity rating AMARE ([20]; 250 g ai/ha, scale 0-100) | phytotoxicity rating SORHA ([21]; 250 g ai/ha)
99: phytotoxicity rating SORHA ([10]; 63 g ai/ha) | phytotoxicity rating CASOB ([15]; 63 g ai/ha)
98: phytotoxicity rating CASOB ([4]; 63 g ai/ha) | phytotoxicity rating XANST ([6]; 63 g ai/ha) | phytotoxicity rating ECHCG ([8]; 63 g ai/ha)
50: phytotoxicity rating DIGSA ([22]; 63 g ai/ha)
80: phytotoxicity rating ECHCO ([19]; 63 g ai/ha)
75: phytotoxicity rating AMBEL ([12]; 63 g ai/ha) | phytotoxicity rating SORHA ([21]; 63 g ai/ha)
95: phytotoxicity rating CASOB ([15]; 250 g ai/ha)
85: phytotoxicity rating SETVI ([13]; 63 g ai/ha)
70: phytotoxicity rating DIGSA ([22]; 250 g ai/ha)
